Experimental data taken from the NIST ThermoML archive (doi:10.1021/je0342320).

Assay: xn = mol fraction of the nth substance listed
Conditions: Liquid, Vibrating tube method

CCCCCCCCCC [decane] + COC(=O)OC
mass density [kg/m3]
Conditions | 100 kPa | 10000 kPa | 20000 kPa | 30000 kPa | 40000 kPa
308.15 K, x2 = 0.0676 | – | – | – | 748.49 | –
308.15 K, x2 = 0.2303 | – | – | – | 774.52 | –
308.15 K, x2 = 0.2934 | – | – | – | 786.53 | –
308.15 K, x2 = 0.4055 | – | – | – | 810.51 | –
308.15 K, x2 = 0.502 | – | – | 827.62 | 835.23 | –
308.15 K, x2 = 0.5476 | – | – | 840.77 | 848.52 | –
308.15 K, x2 = 0.5883 | – | – | 853.46 | 861.27 | –
308.15 K, x2 = 0.665 | – | – | 880.05 | 888.01 | –
308.15 K, x2 = 0.7101 | – | – | 898.05 | 906.21 | –
308.15 K, x2 = 0.7993 | – | – | 937.83 | 946.02 | –
308.15 K, x2 = 0.9062 | – | – | 998.48 | 1006.83 | –
313.15 K, x2 = 0.0676 | 722.58 | 730.76 | 738.28 | 745.23 | 751.65
313.15 K, x2 = 0.2303 | 747.1 | 755.75 | 763.69 | 770.99 | 777.72
313.15 K, x2 = 0.2934 | 758.66 | 767.5 | 775.54 | 782.96 | 789.79
313.15 K, x2 = 0.4055 | 781.63 | 790.74 | 799.07 | 806.72 | 813.78
313.15 K, x2 = 0.502 | 805.45 | 814.81 | 823.33 | 831.19 | 838.42
313.15 K, x2 = 0.5476 | 818.21 | 827.67 | 836.31 | 844.29 | 851.66
313.15 K, x2 = 0.665 | 856.63 | 866.37 | 875.3 | 883.49 | 891.08
313.15 K, x2 = 0.7101 | 874 | 883.94 | 893.08 | 901.47 | 909.27
313.15 K, x2 = 0.7993 | 913.46 | 923.44 | 932.63 | 941.03 | 948.81
313.15 K, x2 = 0.9062 | 973.48 | 983.52 | 992.81 | 1001.36 | 1009.35
318.15 K, x2 = 0.0676 | 718.68 | 727.04 | 734.75 | 741.84 | 748.36
318.15 K, x2 = 0.2303 | 742.9 | 751.73 | 759.87 | 767.35 | 774.2
318.15 K, x2 = 0.2934 | 754.31 | 763.4 | 771.65 | 779.22 | 786.19
318.15 K, x2 = 0.4055 | 777.08 | 786.45 | 794.97 | 802.8 | 809.98
318.15 K, x2 = 0.502 | 800.57 | 810.24 | 819.01 | 827.05 | 834.42
318.15 K, x2 = 0.5476 | 813.18 | 822.96 | 831.86 | 840 | 847.53
318.15 K, x2 = 0.665 | 851.25 | 861.33 | 870.52 | 878.91 | 886.65
318.15 K, x2 = 0.7101 | 868.41 | 878.62 | 888.03 | 896.64 | 904.62
318.15 K, x2 = 0.7993 | 907.56 | 917.9 | 927.38 | 936.02 | 944
318.15 K, x2 = 0.9062 | 967.13 | 977.56 | 987.16 | 995.97 | 1004.15
323.15 K, x2 = 0.0676 | 714.71 | 723.36 | 731.25 | 738.46 | 745.15
323.15 K, x2 = 0.2303 | 738.81 | 747.9 | 756.2 | 763.83 | 770.85
323.15 K, x2 = 0.2934 | 749.94 | 759.3 | 767.8 | 775.53 | 782.66
323.15 K, x2 = 0.4055 | 772.41 | 782.1 | 790.9 | 798.87 | 806.24
323.15 K, x2 = 0.502 | 795.68 | 805.66 | 814.72 | 822.91 | 830.5
323.15 K, x2 = 0.5476 | 808.16 | 818.26 | 827.41 | 835.74 | 843.43
323.15 K, x2 = 0.665 | 845.86 | 856.25 | 865.73 | 874.34 | 882.27
323.15 K, x2 = 0.7101 | 862.69 | 873.27 | 882.95 | 891.78 | 899.97
323.15 K, x2 = 0.7993 | 901.72 | 912.4 | 922.17 | 931.08 | 939.25
323.15 K, x2 = 0.9062 | 960.79 | 971.62 | 981.53 | 990.6 | –
328.15 K, x2 = 0.0676 | 710.69 | 719.66 | 727.74 | 735.12 | 741.93
328.15 K, x2 = 0.2303 | 734.47 | 743.93 | 752.49 | 760.25 | 767.41
328.15 K, x2 = 0.2934 | 745.53 | 755.2 | 763.94 | 771.85 | 779.13
328.15 K, x2 = 0.4055 | 767.74 | 777.74 | 786.78 | 794.98 | 802.5
328.15 K, x2 = 0.502 | 790.73 | 801.04 | 810.36 | 818.78 | 826.54
328.15 K, x2 = 0.5476 | 803.07 | 813.56 | 822.99 | 831.5 | 839.36
328.15 K, x2 = 0.665 | 840.35 | 851.18 | 860.94 | 869.79 | 877.9
328.15 K, x2 = 0.7101 | 857.01 | 867.93 | 877.85 | 886.87 | 895.22
328.15 K, x2 = 0.7993 | 895.68 | 906.86 | 916.93 | 926.1 | 934.48
328.15 K, x2 = 0.9062 | 954.3 | 965.6 | 975.83 | 985.17 | 993.79
